Laboratory results taken from ChEMBL document CHEMBL1125072, “Synthesis and biochemical evaluation of tritium-labeled 1-methyl-N-(8-methyl-8-azabicyclo[3.2.1]oct-3-yl)-1H-indazole-3-carboxa mide, a useful radioligand for 5HT3 receptors” (J Med Chem, 1990).

How the values were obtained:
[1] = target: T1, Serotonin 3 (5-HT3) receptor (Rattus norvegicus, UniProt P35563+Q9JJ16); experiment: Inhibitory activity against 5-hydroxytryptamine 3 receptor in rat cortical membranes using [3H]- 1-Methyl-1H-indazole-3-carboxylic acid (8-methyl-8-aza-bicyclo[3.2.1]oct-3-yl)-amide as a radioligand; format: cell membranes
T1 sequence (P35563 whole entry): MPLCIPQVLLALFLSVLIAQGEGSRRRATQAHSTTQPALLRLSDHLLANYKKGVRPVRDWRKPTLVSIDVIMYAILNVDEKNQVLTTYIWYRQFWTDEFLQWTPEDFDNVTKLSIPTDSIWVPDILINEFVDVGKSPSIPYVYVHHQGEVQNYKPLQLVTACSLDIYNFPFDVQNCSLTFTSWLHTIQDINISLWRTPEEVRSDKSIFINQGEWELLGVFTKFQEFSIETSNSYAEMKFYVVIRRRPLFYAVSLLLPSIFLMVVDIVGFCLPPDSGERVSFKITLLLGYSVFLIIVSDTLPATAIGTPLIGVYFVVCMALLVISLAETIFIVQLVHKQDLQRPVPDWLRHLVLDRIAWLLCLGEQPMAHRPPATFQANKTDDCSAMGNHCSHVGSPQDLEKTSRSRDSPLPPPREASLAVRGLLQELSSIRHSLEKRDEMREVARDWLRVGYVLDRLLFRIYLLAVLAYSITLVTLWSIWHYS
T1 sequence (Q9JJ16 whole entry): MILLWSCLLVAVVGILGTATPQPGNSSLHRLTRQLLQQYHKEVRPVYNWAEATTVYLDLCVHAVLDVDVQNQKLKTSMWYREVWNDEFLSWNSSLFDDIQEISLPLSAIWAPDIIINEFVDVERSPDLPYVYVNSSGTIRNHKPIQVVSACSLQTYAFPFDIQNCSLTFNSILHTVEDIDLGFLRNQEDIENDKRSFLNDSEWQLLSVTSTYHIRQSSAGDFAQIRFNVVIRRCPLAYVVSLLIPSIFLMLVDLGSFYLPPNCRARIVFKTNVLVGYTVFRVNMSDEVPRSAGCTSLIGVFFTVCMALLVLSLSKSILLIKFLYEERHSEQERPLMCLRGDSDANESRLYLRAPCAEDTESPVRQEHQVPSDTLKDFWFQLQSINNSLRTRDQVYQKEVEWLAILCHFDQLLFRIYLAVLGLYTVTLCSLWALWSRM

[2] = target: T1, Serotonin 3 (5-HT3) receptor; experiment: pKi value for inhibition of [3H]LY-278584 binding to 5-hydroxytryptamine 3 receptor; format: protein-complex assay
[3] = target: 5-hydroxytryptamine receptor 1B (Rattus norvegicus, UniProt P28564); experiment: Inhibitory activity against 5-hydroxytryptamine 1B receptor in rat cortical membranes using [3H]5-HT as a radioligand; format: cell membranes
Chain of 5-hydroxytryptamine receptor 1B (P28564 whole entry): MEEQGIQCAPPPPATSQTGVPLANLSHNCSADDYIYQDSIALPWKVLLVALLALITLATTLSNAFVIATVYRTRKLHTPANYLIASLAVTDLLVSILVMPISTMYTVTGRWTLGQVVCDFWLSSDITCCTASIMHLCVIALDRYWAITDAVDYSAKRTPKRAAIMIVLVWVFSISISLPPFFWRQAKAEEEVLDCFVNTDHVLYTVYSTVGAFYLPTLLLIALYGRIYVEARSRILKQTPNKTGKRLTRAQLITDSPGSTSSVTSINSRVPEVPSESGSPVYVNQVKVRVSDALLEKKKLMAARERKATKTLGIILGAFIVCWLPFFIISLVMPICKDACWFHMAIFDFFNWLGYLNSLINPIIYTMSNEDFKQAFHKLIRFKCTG

Rattus norvegicus [4] = experiment: Effective dose required to reduce von benzold jarisch reflex response to 5-HT was determined; Value ranges from 10-30 ug/Kg; format: functional
[5] = target: T2, 5-hydroxytryptamine receptor 1A (Rattus norvegicus, UniProt P19327); experiment: Inhibitory activity against 5-hydroxytryptamine 1A receptor in rat cortical membranes using [3H]8-OH-DPAT as a radioligand; format: cell membranes
T2 sequence (P19327 whole entry): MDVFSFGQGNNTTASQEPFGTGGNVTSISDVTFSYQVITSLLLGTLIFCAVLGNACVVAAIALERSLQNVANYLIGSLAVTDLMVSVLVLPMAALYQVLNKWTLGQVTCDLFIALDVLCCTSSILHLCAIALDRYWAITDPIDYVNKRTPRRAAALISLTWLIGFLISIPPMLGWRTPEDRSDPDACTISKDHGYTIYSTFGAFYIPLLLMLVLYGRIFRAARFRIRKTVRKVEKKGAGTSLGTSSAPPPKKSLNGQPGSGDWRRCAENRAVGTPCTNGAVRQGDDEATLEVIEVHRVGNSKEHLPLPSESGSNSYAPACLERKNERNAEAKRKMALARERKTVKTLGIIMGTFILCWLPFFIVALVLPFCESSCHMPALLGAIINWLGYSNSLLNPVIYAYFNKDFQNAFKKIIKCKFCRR

Rattus norvegicus [6] = experiment: Percentage inhibition 5-HT- mediated bradycardia in rat after 3 ug/Kg of compound administered intravenously; format: functional

| Ki [3] [nM] | Ki [5] [nM] | SMILES | Ki [1] [nM] | Ki [2] [nM] | ED50 (Rattus norvegicus [4]) [mg/kg] | Inhibition (Rattus norvegicus [6]) [%] |
| --- | --- | --- | --- | --- | --- | --- |
| – | – | CN1C2CCC1CC(NC(=O)c1n[nH]c3ccccc13)C2 (stereo not drawn) | 4.26 | 4.27 | – | – |
| – | – | CN1C2CCC1CC(NC(=O)c1c3ccccc3nn1C)C2 (stereo not drawn) | 1050 | 1050 | – | – |
| – | – | CN1[C@@H]2CC[C@H]1C[C@@H](OC(=O)c1cc(Cl)cc(Cl)c1)C2 [BEMESETRON] | 26 | 25.7 | – | – |
| > 1000 | > 1000 | CN1C2CCCC1CC(NC(=O)c1nn(C)c3ccccc13)C2 (stereo not drawn) [GRANISETRON] | – | – | 0.01 | – |
| – | – | CCN(CC)CCNC(=O)c1cc(Cl)c(N)cc1OC [METOCLOPRAMIDE] | 502 | 501 | – | – |
| – | – | c1ccc2nc(N3CCNCC3)ccc2c1 [QUIPAZINE] | 3.04 | 3.02 | – | – |
| – | – | CN1[C@@H]2CC[C@H]1C[C@@H](OC(=O)c1c[nH]c3ccccc13)C2 [TROPISETRON] | 1.28 | 1.29 | – | 66 |
| – | – | COc1cc(N)c(Cl)cc1C(=O)NC1CN2CCC1CC2 (stereo not drawn) [ZACOPRIDE] | 0.42 | 0.417 | – | – |
